From patent US11458126B2, “DHODH inhibitor for use in treating hematologic cancers” (PTC THERAPEUTICS, INC., priority 2017, dated 2022)

Assays:
[1] = test system: VEGFA protein production in HT1080 cells; assay: VEGFA protein production as surrogate for inhibition of DHODH function; assay type: cell-based, human; conditions: blocked by added uridine, not adenosine, cytidine, guanosine (FIG. 1d)
Protocol: Determination of ELISA EC50 and Cytotoxicity CC50: All ELISAs were performed using commercially available ELISA kits (R&D Systems) according to the manufacturer's instructions. The screen of 240 cell lines were performed in Crown Bioscience (Shanghai, China). […] Data generated from ELISA or cytotoxicity studies were plotted with Prism software, with the Y-axis typically representing the % inhibition and the X-axis representing log compound concentration. A sigmoid dose response with a variable slope regression curve was generated for each compound. Maximal inhibition was set at 100% and minimal at 0%. EC50 and CC50 values were automatically calculated after curve fitting using the Prism software.

[2] = target: T1, DHODH (mitochondria isolated from K562 cells) (Homo sapiens, UniProt Q02127); assay: DHODH activity with purified mitochondria as enzyme source; assay type: biochemical; conditions: 30 minutes of treatment (FIG. 2c)
T1 construct: Mitochondria were isolated from K562 cells in log phase growth with a Dounce homogenizer; endogenous in cells; host or cells: K562 cells (isolated mitochondria)
T1 sequence (Q02127 whole entry): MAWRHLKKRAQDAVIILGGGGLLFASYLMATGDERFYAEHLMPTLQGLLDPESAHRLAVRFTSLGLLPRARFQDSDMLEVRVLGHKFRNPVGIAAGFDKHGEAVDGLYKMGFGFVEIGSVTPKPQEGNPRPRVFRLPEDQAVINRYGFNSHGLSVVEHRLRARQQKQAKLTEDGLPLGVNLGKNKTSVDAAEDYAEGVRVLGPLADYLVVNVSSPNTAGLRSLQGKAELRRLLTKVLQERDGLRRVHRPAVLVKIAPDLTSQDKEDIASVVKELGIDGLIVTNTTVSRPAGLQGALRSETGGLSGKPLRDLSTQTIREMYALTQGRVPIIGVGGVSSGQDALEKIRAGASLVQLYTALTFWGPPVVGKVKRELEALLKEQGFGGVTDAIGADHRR

DHODH = DHODH (Homo sapiens, UniProt Q02127); assay: Purified rhDHODH enzymatic assay; assay type: biochemical; set-up: full length purified recombinant human DHODH or mitochondria isolated from K562 cells were used as enzyme sources; conditions: compared with activity in hematologic cancer cells and other DHODH inhibitors
Chain of DHODH (Q02127 whole entry, canonical isoform): as the sequence (Q02127 whole entry) above
From the text: Low pyrimidine pool levels may affect certain translation factor(s) or mechanisms required for the non-canonical protein synthesis of stress-regulated mRNAs. […] EIF1A is an isoform that controls translation start codon recognition. Low uridine levels may also affect the mRNA substrate directly: depletion of pyrimidine nucleotides in cancer cells can cause a starvation-like stress response leading to changes in methylation and pseudouridylation of mRNA modifications.
In Vitro DHODH Activity Assays. The chromogen reduction assay was carried out as previously reported. DHODH activity was determined in the presence of compounds or vehicle control using the standard colorimetric DHODH continuous assay in which the oxidation of dihydroorotic acid (DHO) and subsequent reduction of ubiquinone is coupled with and measured by monitoring the reduction of 2,6-dichlorophenolindophenol (DCPIP). Briefly, full length purified recombinant human DHODH or mitochondria isolated from K562 cells were used as enzyme sources to test compound inhibition of DHODH activity. […] The DCIP reduction was monitored by measuring the absorbance at OD610 nm on a BioTek Power Wave XS2 and the enzyme reaction velocity was derived for each reaction using the GENS software.

COc1ccc([C@H]2c3[nH]c4ccc(Cl)cc4c3CCN2C(=O)Oc2ccc(Cl)cc2)cc1 [Cpd 1, 4-chlorophenyl (S)-6-chloro-1-(4-methoxyphenyl)-1,3,4,9-tetrahydro-2H-pyrido[3,4-b]indole-2-carboxylate]
VEGFA protein production [1]: inhibition of VEGFA protein production | inhibition of DHODH activity (orotate production by LC-MS/MS) [2]: more potently than did teriflunomide and with similar potency as brequinar | inhibition of DHODH functional activity in purified rhDHODH enzymatic assays (DHODH): less inhibition of DHODH functional activity
